Measured values published in US8592421B2, “Cyclic bioisosters of purine system derivatives and a pharmaceutical composition based thereon” (priority 2003, dated 2013).

How the values were obtained:
[1] = system: synthase of nitrogen oxide (NOC); assay: Morphine abstinence model: activity of synthase of nitrogen oxide (NOC), radiometric [3H]L-citrulline method; format: in vivo, rats Wistar; settings: 20.0 mg/kg intramuscularly; for Activity of NOC: Mesencephalon: control 2.18 ± 0.09; for Activity of NOC: Hypothalamus: control 5.37 ± 0.20
plasma hemostasis = assay: Prothrombin time after intravenous administration; format: in vivo, rabbit; settings: for effect on the prothrombin time index: doses of 15.0, 30.0, 60.0 mg/kg
Procedure: The static parameters of the blood and plasma coagulation (partial activated thromboplastin time, thrombin time, maximum coagulation activity (test for auto coagulation) were determined using the Behnk Electronic coagulometer (Germany). The operating principle of this instrument is based on the fact that the formed blood clot breaks the contacts of the pulse counter in the flask-pin circuit, said pin permanently oscillating in a vertical plane. The moment of formation of the clot is registered by stopping the stop watch hand.
The measurements were effected at a constant temperature of 37° C. maintained by a temperature control unit.
The method of its determination is based on estimation of the coagulation of citrate or oxalic blood plasma, when it is mixed with thromboplastin and a calcium chloride solution. Since under these conditions the time of formation of the clot depends on the content of II, VII, IX and X factors in the investigated plasma sample, now the test is called “thromboplastin time by Quick” or “activity thromboplastin complex”.
Citrate blood containing 1 part of citrate per 9 parts of native blood was centrifuged at 3000 rev/min for 10 minutes to obtain plasma deprived of thrombocytes.
Added into a test tube in a water bath were 0.1 ml of plasma and 0.1 ml of a thromboplastin solution.

[2] = Morphine abstinence model: thymus condition (mass, nitrites); format: in vivo, rats; settings: for Nitrites in thymus supernatant: control 0.331 ± 0.041; for Thymus mass: control 230 ± 14
Excerpt: The spectrometric method is based the reaction of nitrites with the Griss reagent (a mixture of 2% solution of sulfanilamide and 0.2% N-(1-naphthyl)ethylene diamine. At the first step the nitrite reacts with sulfanilamide with formation of diazonium salt, and then with the second component to form azo dye with an adsorption maximum at 540 nm. For reduction of nitrates into nitrites, a fermentative method was used with bacterial reductase nitrate (Grisham M. B. et al., 1995). The samples of plasma and supernathant of the liver deproteinizated at 100° C. for 5 minutes incubated for 30 minutes at 37° C. in 50.0 mM of HEPES pH 7.4 in the presence of 0.2 unit/ml of Aspergillus reductase nitrate, 5.0 mkM of FAD and 0.1 mM of NAD-Ph. At the end of the reaction lactate dehydrogenase and pyruvate were added for isolation of NAD-Ph interfering with the Griss reaction. Then the Griss reagent was added and after 10-minute incubation the light absorption of the samples was measured at 540 nm. To amount of NOX^− was calculated using sodium nitrate as a standard.
The effect of the compounds according to the invention on the condition of the thymus of the rats was also investigated: a control group, an experimental group of morphinized animals and an experimental group of animals were first morphinized and then injected with the compounds according to the invention. The experiment was carried out similarly to that described above.

thrombocytes = assay: ADP-induced aggregation of thrombocytes in vitro (Born method, plasma enriched with thrombocytes); format: cell-based, rabbit; settings: 3-minute incubation, ADP 10^−5 M
Procedure: The aggregation of thrombocytes was studied by the Born method based on determination of the changes in the optical density of plasma enriched with thrombocytes after its incubation with an aggregation inductor.
Adenozinediphosphoric acid (ADP) was selected as an aggregation inductor, which in fact is an aggregation generator. Use was made of a sample (registration number 885) of the Sigma Diagnostics Company (USA) in final concentration of 10^−5 M.
The experiments were carried out on male rabbits of the “Chinchilla” breed having a mass of 2.7±0.3 kg. 18-24 hours prior to the experiment they were deprived of feed while preserving free access to water.
To obtain plasma enriched with thrombocytes, blood was taken from a cut of a marginal vein of the rabbit ear, the sample was stabilized with 3.8% of sodium citrate solution in a ratio of 9:1 and centrifuged at 200 g (1000 rev/min) for 10 minutes. The top supernatant layer enriched with thrombocytes was transferred by an automatic dropper into a silicone test tube and kept at 37° C. The plasma enriched with thrombocytes contained, on the average, […]. If this content exceeded the specified 3×10^8 blood platelets in 1 liter, this sample was diluted to the necessary concentration with plasma deprived of thrombocytes, which was obtained by centrifuging blood at 650 g during 10 minutes.
The measurements of the optical density of the samples were made on two-channel aggregometer of the “Chronolog” Company (USA). A flask containing 490 mkl of plasma rich with thrombocytes was placed in a device, into which a magnetic agitator covered with Teflon was lowered. The index of maximum amplitude of aggregation (MA) in percent of a fall of the plasma optical density under effect of the aggregation inductor was recorded. The control index MA of plasma was compared with the MA of plasma incubated for 3 minutes with different concentrations of the compounds: from 10^−3 to 10^−7 in vitro experiments or with plasma obtained 15, 30, 60 and 120 minutes after intravenous administration of different doses of the compounds in vivo experiments.
The process of aggregation of thrombocytes was recorded with the help of a computer; on the monitor screen the there were depicted curves reflecting changes of the optical density of the plasma enriched which was taken as a standard 100% compared to the optical density of the non-thrombocyte plasma taken for 0% content of thrombocytes.
Under in vitro conditions a flask was filled with blood plasma enriched with thrombocytes, to which an aggregation inductor ADP was added at a concentration of 10^−5 M, incubated for 3 minutes, and then the compounds according to the invention were introduced directly into the flask. Their action by aggregation of thrombocytes was studied after 3-minute incubation in a wide range of concentrations from 10^−3 to 10^−7 M to minimum concentration of 10^−7M not inducing no effect of suppressing the aggregation.

[3] = 15.0 mg/kg intravenously, after 15 minutes, control 11.8 ± 0.1
[4] = 15.0 mg/kg intravenously, after 30 minutes, control 11.8 ± 0.1
[5] = 15.0 mg/kg intravenously, after 60 minutes, control 11.8 ± 0.1
[6] = 15.0 mg/kg intravenously, after 120 minutes, control 11.8 ± 0.1
[7] = 30.0 mg/kg intravenously, after 15 minutes, control 11.2 ± 0.1
[8] = 30.0 mg/kg intravenously, after 30 minutes, control 11.2 ± 0.1
[9] = 30.0 mg/kg intravenously, after 60 minutes, control 11.2 ± 0.1
[10] = 30.0 mg/kg intravenously, after 120 minutes, control 11.2 ± 0.1
[11] = 60.0 mg/kg intravenously, after 15 minutes, control 12.0 ± 0.1
[12] = 60.0 mg/kg intravenously, after 30 minutes, control 12.0 ± 0.1
[13] = 60.0 mg/kg intravenously, after 60 minutes, control 12.0 ± 0.1
[14] = 60.0 mg/kg intravenously, after 120 minutes, control 12.0 ± 0.1
[15] = Administration of morphine and compound

SMILES: Nc1cccc2c(=O)[nH][nH]c(=O)c12.[Na] [Compound 15, sodium salt of 5-amino-benzo[d]-3H-pyridazine-1,4-dione]
- Activity of NOC: Mesencephalon ([1]; Control + Compound): 2.60 ± 0.29 pmol/min/mg of protein
- Activity of NOC: Hypothalamus ([1]; Control + Compound): 5.45 ± 0.24 pmol/min/mg of protein
- Activity of NOC: Mesencephalon ([1]; Control + Morphine + compound): 1.83 ± 0.23 pmol/min/mg of protein
- Activity of NOC: Hypothalamus ([1]; Control + Morphine + compound): 5.26 ± 0.28 pmol/min/mg of protein
- prothrombin time, T (plasma hemostasis; [3]): 11.5 ± 0.2 s
- prothrombin time, T (plasma hemostasis; [4]): 11.7 ± 0.2 s
- prothrombin time, T (plasma hemostasis; [5]): 11.2 ± 0.2 s
- prothrombin time, T (plasma hemostasis; [6]): 11.5 ± 0.2 s
- prothrombin time, T (plasma hemostasis; [7]): 11.0 ± 0.2 s
- prothrombin time, T (plasma hemostasis; [8]): 11.2 ± 0.2 s
- prothrombin time, T (plasma hemostasis; [9]): 11.4 ± 0.2 s
- prothrombin time, T (plasma hemostasis; [10]): 11.3 ± 0.2 s
- prothrombin time, T (plasma hemostasis; [11]): 12.0 ± 0.1 s
- prothrombin time, T (plasma hemostasis; [12]): 12.0 ± 0.1 s
- prothrombin time, T (plasma hemostasis; [13]): 12.0 ± 0.2 s
- prothrombin time, T (plasma hemostasis; [14]): 12.0 ± 0.1 s
- effect on the prothrombin time index (plasma hemostasis): have no effect on the prothrombin time index
- Nitrites in thymus supernatant ([2]; Administration of compounds): 0.407 ± 0.02 nmol/mg of protein
- Thymus mass ([2]; Administration of compounds): 298 ± 25 mg
- Nitrites in thymus supernatant [2, 15]: 0.383 ± 0.02 nmol/mg of protein
- Thymus mass [2, 15]: 214 ± 12 mg
- MA - fall of optical density of plasma, % to the standard (thrombocytes; 10^−3 M, control 60.8 ± 3.4): 44.8 ± 2.8 %
- MA - fall of optical density of plasma, % to the standard (thrombocytes; 10^−4 M, control 60.0 ± 2.1): 46.3 ± 1.7 %
- MA - fall of optical density of plasma, % to the standard (thrombocytes; 10^−5 M, control 52.5 ± 2.1): 39.8 ± 3.1 %
- MA - drop of optical density, % (thrombocytes; 10^−6 M, control 52.8 ± 1.8): 47.3 ± 1.8 %
- MA - drop of optical density, % (thrombocytes; 10^−7 M, control 51.5 ± 2.1): 49.3 ± 1.4%

SMILES: O=c1[nH][nH]c(=O)c2c(Br)ncnc12.[K] [Compound 37, potassium salt of 4-bromine-pyrimido[4,5-D]-6H-pyridazine-5,8-dione]
- Activity of NOC: Mesencephalon ([1]; Control + Compound): 2.62 ± 0.27 pmol/min/mg of protein
- Activity of NOC: Hypothalamus ([1]; Control + Compound): 5.61 ± 0.22 pmol/min/mg of protein
- Activity of NOC: Mesencephalon ([1]; Control + Morphine + compound): 1.85 ± 0.30 pmol/min/mg of protein
- Activity of NOC: Hypothalamus ([1]; Control + Morphine + compound): 5.59 ± 0.22 pmol/min/mg of protein
- prothrombin time, T (plasma hemostasis; [3]): 11.6 ± 0.2 s
- prothrombin time, T (plasma hemostasis; [4]): 11.6 ± 0.1 s
- prothrombin time, T (plasma hemostasis; [5]): 11.5 ± 0.2 s
- prothrombin time, T (plasma hemostasis; [6]): 11.8 ± 0.1 s
- prothrombin time, T (plasma hemostasis; [7]): 11.3 ± 0.1 s
- prothrombin time, T (plasma hemostasis; [8]): 11.2 ± 0.2 s
- prothrombin time, T (plasma hemostasis; [9]): 11.4 ± 0.1 s
- prothrombin time, T (plasma hemostasis; [10]): 11.1 ± 0.1 s
- prothrombin time, T (plasma hemostasis; [11]): 12.1 ± 0.1 s
- prothrombin time, T (plasma hemostasis; [12]): 12.0 ± 0.1 s
- prothrombin time, T (plasma hemostasis; [13]): 12.1 ± 0.2 s
- prothrombin time, T (plasma hemostasis; [14]): 12.0 ± 0.1 s
- effect on the prothrombin time index (plasma hemostasis): have no effect on the prothrombin time index
- Nitrites in thymus supernatant ([2]; Administration of compounds): 0.410 ± 0.01 nmol/mg of protein
- Thymus mass ([2]; Administration of compounds): 263 ± 21 mg
- Nitrites in thymus supernatant [2, 15]: 0.387 ± 0.01 nmol/mg of protein
- Thymus mass [2, 15]: 228 ± 15 mg
- MA - fall of optical density of plasma, % to the standard (thrombocytes; 10^−3 M, control 60.8 ± 3.4): 46.9 ± 2.7 %
- MA - fall of optical density of plasma, % to the standard (thrombocytes; 10^−4 M, control 60.0 ± 2.1): 47.1 ± 2.0 %
- MA - fall of optical density of plasma, % to the standard (thrombocytes; 10^−5 M, control 52.5 ± 2.1): 40.6 ± 1.7 %
- MA - drop of optical density, % (thrombocytes; 10^−6 M, control 52.8 ± 1.8): 48.1 ± 2.9%
- MA - drop of optical density, % (thrombocytes; 10^−7 M, control 51.5 ± 2.1): 50.1 ± 1.0%
